Usually EC50 stands for the concentration at which the effect is half-maximal. The low end stands for an effect from little substance, the high end for a need for much substance. Broadly, the IC50 is the concentration at which inhibition is half-maximal. The term AC50 denotes the concentration at which the activity in the assay is half-maximal.

The structures appear in SMILES notation. The source made the active and inactive calls. Bounds are passed on as bounds.

Assay [1] addresses Sphingosine 1-phosphate receptor 2 (Homo sapiens, UniProt O95136). As to the kind of experiment: Dose Response Cell Based Assay for Agonists of the S1P2 Receptor. [Related pubchem assays: 729, 736, 843 ]. Type of assay: functional.
For assay [2], the target named is Heat shock protein HSP 90-alpha (Homo sapiens, UniProt P07900). As to the kind of experiment: Luminescence-based dose response biochemical high throughput screening assay for inhibitors of the Heat Shock Protein 90 (HSP90). [Related pubchem assays: 1831 (Summary AID.), 1846 (Confirmation screen.), 1789 (Primary screen.)].
Assay [3] deals with T1, Tyrosine-protein phosphatase non-receptor type 7 (Homo sapiens, UniProt P35236).
T1 sequence (P35236 whole entry): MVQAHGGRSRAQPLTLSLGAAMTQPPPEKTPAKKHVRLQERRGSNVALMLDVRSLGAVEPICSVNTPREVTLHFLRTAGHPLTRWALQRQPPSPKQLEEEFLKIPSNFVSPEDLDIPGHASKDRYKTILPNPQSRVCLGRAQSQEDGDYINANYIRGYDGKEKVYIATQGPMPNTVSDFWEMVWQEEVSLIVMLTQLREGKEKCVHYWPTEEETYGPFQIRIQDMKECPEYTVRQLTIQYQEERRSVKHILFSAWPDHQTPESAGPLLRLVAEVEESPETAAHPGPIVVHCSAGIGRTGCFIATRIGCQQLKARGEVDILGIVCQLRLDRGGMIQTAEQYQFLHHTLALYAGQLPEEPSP
As to the kind of experiment: HePTP tyrosine phosphatase activity blockers – biochemical, absorbance, leukemia target, primary screen (AID 521). In kind it is functional.

The target in assay [4] is T2, Voltage-gated N-type calcium channel alpha-1B subunit/Amyloid beta A4 precursor protein-binding family A member 1 (Homo sapiens, UniProt Q00975+Q02410). Type of assay: protein assay.
T2 sequence (Q00975 whole entry): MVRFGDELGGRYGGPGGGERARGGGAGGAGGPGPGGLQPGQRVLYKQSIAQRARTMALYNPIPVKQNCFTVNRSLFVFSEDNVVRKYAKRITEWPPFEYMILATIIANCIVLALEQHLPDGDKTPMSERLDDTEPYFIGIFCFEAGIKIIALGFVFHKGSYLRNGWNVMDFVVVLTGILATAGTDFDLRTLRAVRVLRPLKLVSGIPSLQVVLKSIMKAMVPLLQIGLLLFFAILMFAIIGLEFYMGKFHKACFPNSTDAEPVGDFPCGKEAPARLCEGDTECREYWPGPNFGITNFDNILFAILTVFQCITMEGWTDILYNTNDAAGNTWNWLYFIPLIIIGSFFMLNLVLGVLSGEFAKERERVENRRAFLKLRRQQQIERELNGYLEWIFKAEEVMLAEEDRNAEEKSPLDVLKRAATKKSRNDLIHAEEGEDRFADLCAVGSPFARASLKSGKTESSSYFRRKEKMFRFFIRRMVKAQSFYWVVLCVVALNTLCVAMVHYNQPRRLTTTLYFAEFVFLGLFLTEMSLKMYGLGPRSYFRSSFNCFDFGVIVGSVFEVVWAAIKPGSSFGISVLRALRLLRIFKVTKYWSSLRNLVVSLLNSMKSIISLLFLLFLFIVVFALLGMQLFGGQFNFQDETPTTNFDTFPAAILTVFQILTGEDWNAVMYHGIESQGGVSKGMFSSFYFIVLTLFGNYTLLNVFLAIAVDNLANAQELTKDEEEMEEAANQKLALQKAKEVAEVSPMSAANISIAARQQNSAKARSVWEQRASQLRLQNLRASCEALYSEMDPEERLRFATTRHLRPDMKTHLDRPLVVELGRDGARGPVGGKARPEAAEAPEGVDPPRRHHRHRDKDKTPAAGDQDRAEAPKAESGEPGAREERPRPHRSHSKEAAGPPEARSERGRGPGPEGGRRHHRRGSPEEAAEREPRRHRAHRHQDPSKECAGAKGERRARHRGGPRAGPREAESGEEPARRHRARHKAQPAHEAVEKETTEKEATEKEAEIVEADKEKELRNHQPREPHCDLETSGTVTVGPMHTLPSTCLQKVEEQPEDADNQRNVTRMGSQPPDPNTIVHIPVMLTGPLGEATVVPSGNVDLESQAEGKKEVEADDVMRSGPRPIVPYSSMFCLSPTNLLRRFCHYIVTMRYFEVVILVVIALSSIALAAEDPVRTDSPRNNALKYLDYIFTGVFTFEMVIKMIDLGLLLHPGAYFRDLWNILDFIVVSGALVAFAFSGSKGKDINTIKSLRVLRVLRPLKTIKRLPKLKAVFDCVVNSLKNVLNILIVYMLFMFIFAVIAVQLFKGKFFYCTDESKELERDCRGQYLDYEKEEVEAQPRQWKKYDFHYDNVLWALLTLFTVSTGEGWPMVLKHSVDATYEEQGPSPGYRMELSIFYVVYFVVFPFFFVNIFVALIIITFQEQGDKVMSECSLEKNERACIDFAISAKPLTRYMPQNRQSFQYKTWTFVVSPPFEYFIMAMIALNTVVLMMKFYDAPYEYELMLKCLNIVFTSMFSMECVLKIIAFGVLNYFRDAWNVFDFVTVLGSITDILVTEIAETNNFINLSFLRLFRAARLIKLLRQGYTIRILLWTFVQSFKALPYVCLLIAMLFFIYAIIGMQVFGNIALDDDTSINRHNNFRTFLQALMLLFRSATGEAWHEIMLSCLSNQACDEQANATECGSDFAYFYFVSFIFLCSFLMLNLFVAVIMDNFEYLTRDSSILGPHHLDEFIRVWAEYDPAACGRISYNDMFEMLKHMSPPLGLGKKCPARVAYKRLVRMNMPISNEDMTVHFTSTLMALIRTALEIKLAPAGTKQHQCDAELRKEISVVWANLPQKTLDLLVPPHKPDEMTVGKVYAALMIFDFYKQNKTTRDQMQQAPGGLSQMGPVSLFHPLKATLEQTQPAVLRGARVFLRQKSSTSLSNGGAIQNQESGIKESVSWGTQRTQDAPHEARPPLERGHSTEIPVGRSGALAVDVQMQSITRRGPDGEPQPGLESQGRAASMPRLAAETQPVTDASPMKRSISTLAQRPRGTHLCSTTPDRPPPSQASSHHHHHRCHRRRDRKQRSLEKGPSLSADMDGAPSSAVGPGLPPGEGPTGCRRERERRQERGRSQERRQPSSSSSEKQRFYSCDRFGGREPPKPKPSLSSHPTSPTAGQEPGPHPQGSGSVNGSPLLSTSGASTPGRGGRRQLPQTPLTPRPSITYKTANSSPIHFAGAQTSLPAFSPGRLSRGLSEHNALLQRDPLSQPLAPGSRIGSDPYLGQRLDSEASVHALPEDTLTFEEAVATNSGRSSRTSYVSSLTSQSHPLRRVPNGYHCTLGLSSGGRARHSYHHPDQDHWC
T2 sequence (Q02410 whole entry): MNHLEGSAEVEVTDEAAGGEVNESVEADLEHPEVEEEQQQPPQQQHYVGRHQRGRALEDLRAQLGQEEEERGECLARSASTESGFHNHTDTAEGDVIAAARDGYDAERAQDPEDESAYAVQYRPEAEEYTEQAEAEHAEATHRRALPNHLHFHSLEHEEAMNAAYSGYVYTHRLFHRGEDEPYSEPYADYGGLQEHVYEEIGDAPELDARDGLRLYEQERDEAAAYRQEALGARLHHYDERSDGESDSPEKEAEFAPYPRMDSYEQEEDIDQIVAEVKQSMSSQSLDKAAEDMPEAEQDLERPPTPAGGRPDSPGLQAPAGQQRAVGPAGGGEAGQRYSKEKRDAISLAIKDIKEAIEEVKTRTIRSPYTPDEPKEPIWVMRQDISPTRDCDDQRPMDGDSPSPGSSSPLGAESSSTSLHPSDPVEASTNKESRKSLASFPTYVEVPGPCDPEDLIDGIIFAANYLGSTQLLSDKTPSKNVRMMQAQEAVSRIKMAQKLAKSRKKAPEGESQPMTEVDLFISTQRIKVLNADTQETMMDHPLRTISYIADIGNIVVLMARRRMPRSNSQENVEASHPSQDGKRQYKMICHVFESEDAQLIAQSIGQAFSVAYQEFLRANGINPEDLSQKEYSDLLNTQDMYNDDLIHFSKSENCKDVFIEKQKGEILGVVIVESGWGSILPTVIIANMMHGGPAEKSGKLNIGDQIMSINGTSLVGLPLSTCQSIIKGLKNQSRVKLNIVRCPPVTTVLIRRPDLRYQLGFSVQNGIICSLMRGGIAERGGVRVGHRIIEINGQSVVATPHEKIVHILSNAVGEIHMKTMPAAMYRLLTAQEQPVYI
In assay [5] the target is T2, Voltage-gated N-type calcium channel alpha-1B subunit/Amyloid beta A4 precursor protein-binding family A member 1. In kind it is protein assay. The source holds these as a separate data set.
The target of assay [6] is Bifunctional protein GlmU (Mycobacterium tuberculosis, UniProt P9WMN3). As to the kind of experiment: Inhibitors of Mycobacterial Glucosamine-1-phosphate acetyl transferase (GlmU). Secondary screen. Details: species or system Mycobacterium tuberculosis H37Rv.
Chain of Bifunctional protein GlmU (P9WMN3 whole entry): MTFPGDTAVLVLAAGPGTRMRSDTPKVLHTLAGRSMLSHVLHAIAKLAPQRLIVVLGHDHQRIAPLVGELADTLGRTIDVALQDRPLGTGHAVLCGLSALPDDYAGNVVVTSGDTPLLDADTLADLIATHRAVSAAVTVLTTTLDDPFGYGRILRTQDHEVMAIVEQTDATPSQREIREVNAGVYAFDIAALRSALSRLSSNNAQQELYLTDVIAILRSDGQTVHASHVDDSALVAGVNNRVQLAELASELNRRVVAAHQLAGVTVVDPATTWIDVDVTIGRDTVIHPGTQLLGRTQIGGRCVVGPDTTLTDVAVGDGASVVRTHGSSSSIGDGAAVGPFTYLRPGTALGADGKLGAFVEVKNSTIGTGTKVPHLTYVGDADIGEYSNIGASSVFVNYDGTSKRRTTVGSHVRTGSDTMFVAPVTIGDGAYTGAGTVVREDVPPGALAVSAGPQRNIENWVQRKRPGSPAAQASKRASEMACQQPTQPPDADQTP
In assay [7] the target is Dual specificity protein phosphatase 6 (Rattus norvegicus, UniProt Q64346). The assay is described as follows: inhibition of rat DUSP6 enzyme activity – biochemical, in vitro, primary screen (AID 425).
Chain of Dual specificity protein phosphatase 6 (Q64346 whole entry, the tested form may be a part): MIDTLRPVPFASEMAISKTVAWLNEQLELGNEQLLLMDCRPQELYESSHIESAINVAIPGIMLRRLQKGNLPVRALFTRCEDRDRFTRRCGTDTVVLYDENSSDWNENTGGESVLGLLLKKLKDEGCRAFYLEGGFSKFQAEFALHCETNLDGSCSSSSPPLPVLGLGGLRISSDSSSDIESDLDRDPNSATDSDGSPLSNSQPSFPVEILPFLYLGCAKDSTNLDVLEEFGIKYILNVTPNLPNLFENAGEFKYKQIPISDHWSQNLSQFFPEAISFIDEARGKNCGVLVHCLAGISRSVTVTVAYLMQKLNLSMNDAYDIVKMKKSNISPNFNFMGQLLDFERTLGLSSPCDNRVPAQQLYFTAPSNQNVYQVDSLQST
Assay [8] in a line: blockers of HIV-1 envelope-mediated cell-cell fusion – cherry-pick, dose response (AID 652057). In kind it is functional, cell-based.
A short description of assay [9]: off-target signal loss in HeLa-CEM21 co-culture – HeLa F-luc CTL cells, cherry-picked, counter-screen for HIV-1 Env fusion inhibitor project, dose response (AID 652040).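 Note: potency for signal decrease marking cytotoxic or nonspecific inhibition.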 In kind it is functional, cell-based. Background: Counterscreens check selectivity or assay interference.
Assay [10] deals with T3, Bcl-2-related protein A1 (Mus musculus, UniProt Q07440).
T3 sequence (Q07440 whole entry): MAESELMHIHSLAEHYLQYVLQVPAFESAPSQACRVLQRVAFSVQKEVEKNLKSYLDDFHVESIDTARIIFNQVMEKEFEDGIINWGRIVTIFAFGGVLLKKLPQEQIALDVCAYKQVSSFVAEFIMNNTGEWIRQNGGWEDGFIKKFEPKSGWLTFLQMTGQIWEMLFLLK
The assay is described as follows: small-molecule antagonists of Bfl-1/BH3 interaction – biochemical, TR-FRET, mouse Bfl-1, confirmation (AID 621).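 Note: TR-FRET binding of GST-Bfl-1 to FITC-labelled Bid peptide via terbium antibody.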

Assay [11] can be described thus: blockers of HIV-1 ZM109 envelope-driven cell-cell fusion – HeLa effector, CEM target cells, luciferase, cherry-pick, dose response (AID 652058).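 Note: luciferase signal from HIV-1 Env mediated cell-cell fusion of effector and target cells.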 Type of assay: functional, cell-based.
Assay [12] deals with T3, Bcl-2-related protein A1. As to the kind of experiment: displacement of Bid BH3 peptide from Bfl-1 – biochemical, fluorescence polarization, FITC-Bid, mouse, primary screen (AID 432).
A short description of assay [13]: HIV-1 AD8 envelope cell-cell fusion blockers – cherry-pick, dose response (AID 652062).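 Note: luciferase signal from cell-cell fusion driven by HIV-1 clade B AD8 Env; potency is for inhibitors of fusion seen as a drop in luminescence.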 In kind it is functional, cell-based.
Assay [14] can be described thus: viability loss in CEM21 cells – cell-based, CellTiter-Glo luminescence, cherry-picked, cytotoxicity control for viral fusion inhibitor project, dose response (AID 652042).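 Note: potency for signal decrease meaning cytotoxicity.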 Type of assay: functional.
Assay [15] in a line: viability inhibitors of stage V gametocytes – luminescence, dose response (AID 1117278).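 Note: gametocytes exposed to compound for 24 hours.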 In kind it is functional, cell-based.
Assay [16] is described as follows: viability loss in human Jurkat cells – cell-based, luminescence, cytotoxicity control for P. falciparum gametocyte viability project, dose response (AID 1117277).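 Note: potency reflects loss of cellular ATP meaning fewer viable cells.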 In kind it is functional.

Chain of Sphingosine 1-phosphate receptor 2 (O95136 whole entry): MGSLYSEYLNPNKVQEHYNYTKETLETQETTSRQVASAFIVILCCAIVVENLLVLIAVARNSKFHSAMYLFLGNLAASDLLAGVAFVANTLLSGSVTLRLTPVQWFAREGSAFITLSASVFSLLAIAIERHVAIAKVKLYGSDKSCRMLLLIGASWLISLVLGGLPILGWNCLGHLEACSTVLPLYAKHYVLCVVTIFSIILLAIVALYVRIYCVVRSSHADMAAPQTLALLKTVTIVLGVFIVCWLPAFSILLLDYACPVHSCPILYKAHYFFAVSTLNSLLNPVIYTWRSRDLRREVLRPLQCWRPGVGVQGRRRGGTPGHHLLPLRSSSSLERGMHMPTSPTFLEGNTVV

As to `O=C(CCC(=O)N1CCc2ccccc21)Nc1ccccc1`, the EC50 in [1] is > 50 µM (not active).

With `CC(=O)Oc1ccc(Nc2ccccc2)cc1`, in assay [2], the IC50 was 6.62 µM (active).

`CC(C)(C#N)Nc1ccccc1`: the IC50 in assay [3] is given as > 100 µM (not active).

For the compound `N=C1/C(=C\c2ccc(-c3ccc(C(=O)O)cc3)o2)C(=O)N=C2SC=C(c3ccccc3)N12`, the 50% inhibitory concentration (IC50) in [4] is 4.12 µM (active); in assay [5], 29.2 µM (active); in assay [6] it was 182 µM (active).

Consider `Cc1ccc(-c2nn3c(C)nnc3s2)cc1NC(=O)c1ccc(-c2ccc(Cl)cc2Cl)o1`, for which the results for the IC50 (in assay [7]; against Bcl-2-related protein A1 [10]; on Bcl-2-related protein A1 [12]) were > 10 µM (not active), > 100 µM (not active) and > 100 µM (not active), respectively. Further, the AC50 is 6.5 µM (active) in [8]; 9.7 µM (active) in [9]; 4.6 µM (active) in assay [11]; 5.1 µM (active) in assay [13]; 6.8 µM (active) in assay [14].

For the compound `CN(C)S(=O)(=O)N1CCC(Oc2ccc(C(=O)NCc3cnn(C)c3)cc2)CC1`, the IC50 in assay [15] is > 109 µM (inactive); in [16] it was > 83.3 µM (inactive).

The record behind these values is ChEMBL document CHEMBL1201862, “PubChem BioAssay data set” (2004).
